Results from PubChem BioAssay (NCI).
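Briefly, cells in 96-well plates were exposed to five compound concentrations for 48 h, and endpoints were estimated by linear interpolation. The concentration for full growth arrest is given as TGI.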 Where a SMILES comes first, the peptide text is derived from it. The star is where a group is joined. Cbz = O=C(OCc1ccccc1)*; CH2Cl = ClC*

What was measured:
Test in all cases: NCI tumour cell line growth inhibition, 48 h
[1] = tested on: HOP-62 NSCLC
[2] = tested on: EKVX NSCLC
[3] = tested on: HOP-18 NSCLC
[4] = tested on: ACHN renal
[5] = tested on: OVCAR-5 ovarian
[6] = tested on: DMS 114 small cell lung
[7] = tested on: KM12 colon
[8] = tested on: NCI-H226 lung
[9] = tested on: HT29 colon
[10] = tested on: SW-620 colon
[11] = tested on: LXFL 529 NSCLC
[12] = tested on: IGROV1 ovarian
[13] = tested on: SN12C renal
[14] = tested on: 786-0 renal
[15] = tested on: SR leukemia
[16] = tested on: TK-10 renal
[17] = tested on: OVCAR-4 ovarian
[18] = tested on: RPMI-8226 leukemia
[19] = tested on: SF-268 CNS
[20] = tested on: HOP-92 NSCLC
[21] = tested on: M14 melanoma
[22] = tested on: NCI-H522 lung
[23] = tested on: UACC-257 melanoma
[24] = tested on: RXF 393 renal
[25] = tested on: MOLT-4 leukemia
[26] = tested on: A549 NSCLC
[27] = tested on: HCC-2998 colon
[28] = tested on: CCRF-CEM leukemia
[29] = tested on: SF-295 CNS
[30] = tested on: OVCAR-3 ovarian
[31] = tested on: MALME-3M melanoma
[32] = tested on: SK-MEL-28 melanoma
[33] = tested on: NCI-H23 lung
[34] = tested on: HL-60(TB) leukemia
[35] = tested on: OVCAR-8 ovarian
[36] = tested on: CAKI-1 renal
[37] = tested on: DLD-1 colon
[38] = tested on: HCT-15 colon
[39] = tested on: U251 CNS
[40] = tested on: SNB-19 CNS
[41] = tested on: KM20L2 colon
[42] = tested on: UACC-62 melanoma
[43] = tested on: DMS 273 small cell lung
[44] = tested on: SNB-78 CNS
[45] = tested on: LOX IMVI melanoma
[46] = tested on: UO-31 renal
[47] = tested on: COLO 205 colon
[48] = tested on: HCT-116 colon
[49] = tested on: SK-OV-3 ovarian
[50] = tested on: NCI-H460 lung
[51] = tested on: A498 renal
[52] = tested on: K-562 leukemia
[53] = tested on: PC-3 prostate
[54] = tested on: NCI/ADR-RES ovarian
[55] = tested on: MDA-MB-435
[56] = tested on: SK-MEL-2 melanoma
[57] = tested on: MCF7 breast
[58] = tested on: T-47D breast
[59] = tested on: BT-549 breast
[60] = tested on: DU-145 prostate
[61] = tested on: SF-539 CNS
[62] = tested on: SNB-75 CNS
[63] = tested on: HS 578T breast
[64] = tested on: MDA-N
[65] = tested on: SK-MEL-5 melanoma
[66] = tested on: MDA-MB-231 breast

`CC(=O)c1sc(Nc2nnc(-c3ccc(-c4nnc(Nc5nc(C)c(C(C)=O)s5)o4)cc3)o2)nc1C` showed a TGI [1] of over 100 µM, a TGI [2] of over 100 µM and a TGI [3] of over 100 µM. For the same molecule, the TGI [4] was over 100 µM, the TGI [5] was over 10 µM and the TGI [6] was over 100 µM. For the same molecule, the TGI [7] was over 10 µM, the TGI [8] was over 100 µM and the TGI [9] was over 100 µM. The TGI [10] was over 100 µM, the TGI [11] was over 100 µM and the TGI [12] was over 100 µM. The TGI [13] was over 100 µM, the TGI [14] was over 100 µM and the TGI [15] was over 100 µM. The TGI [16] was over 100 µM, the TGI [17] was over 100 µM and the TGI [18] was over 100 µM. It also gave a TGI [19] of over 100 µM, a TGI [20] of over 100 µM and a TGI [21] of over 100 µM. The TGI [22] was over 10 µM, the TGI [23] was over 100 µM and the TGI [24] was over 100 µM. It also gave a TGI [25] of over 100 µM, a TGI [26] of over 10 µM and a TGI [27] of over 100 µM. For the same molecule, the TGI [28] was over 100 µM, the TGI [29] was over 100 µM and the TGI [30] was over 100 µM. It also gave a TGI [31] of over 100 µM, a TGI [32] of over 100 µM and a TGI [33] of over 100 µM. The TGI [34] was over 100 µM, the TGI [35] was over 100 µM and the TGI [36] was over 10 µM. The TGI [37] was over 100 µM, the TGI [38] was over 100 µM and the TGI [39] was over 100 µM. The TGI [40] was over 100 µM, the TGI [41] was over 100 µM and the TGI [42] was over 100 µM. The TGI [43] was over 100 µM, the TGI [44] was over 100 µM and the TGI [45] was over 100 µM. It also gave a TGI [46] of over 10 µM, a TGI [47] of over 100 µM and a TGI [48] of over 100 µM. It also gave a TGI [49] of over 10 µM, a TGI [50] of over 100 µM and a TGI [51] of over 100 µM. For the same molecule, the TGI [52] was over 100 µM.
Molecule `CCOC(=O)CC[C@H](NC(=O)[C@H](N)Cc1ccc(N(CCCl)CCCl)cc1)C(=O)OCC` has a TGI [1] of over 59.6 µM, a TGI [2] of over 67.9 µM and a TGI [53] of over 75.1 µM. The TGI [4] was over 100 µM, the TGI [5] was 65 µM and the TGI [54] was 30.9 µM. For the same molecule, the TGI [55] was over 53.1 µM, the TGI [7] was 31.8 µM and the TGI [8] was over 72 µM. For the same molecule, the TGI [9] was over 78 µM, the TGI [10] was over 58.8 µM and the TGI [12] was over 65.7 µM. For the same molecule, the TGI [56] was 63.2 µM, the TGI [13] was over 62.4 µM and the TGI [14] was 23.5 µM. For the same molecule, the TGI [57] was over 87.3 µM, the TGI [15] was over 100 µM and the TGI [16] was over 100 µM. For the same molecule, the TGI [17] was over 45.2 µM, the TGI [18] was over 100 µM and the TGI [19] was 19.7 µM. For the same molecule, the TGI [58] was 38.6 µM, the TGI [20] was 18.3 µM and the TGI [21] was 21.8 µM. The TGI [22] was 18.3 µM, the TGI [23] was 37.9 µM and the TGI [24] was 29.7 µM. For the same molecule, the TGI [25] was 6.85 µM, the TGI [26] was over 100 µM and the TGI [27] was over 48.6 µM. It also gave a TGI [28] of over 49.6 µM, a TGI [29] of over 77.8 µM and a TGI [30] of 30.2 µM. For the same molecule, the TGI [31] was 9.92 µM, the TGI [32] was over 54.3 µM and the TGI [33] was 12.9 µM. It also gave a TGI [34] of 36.6 µM, a TGI [35] of over 52.8 µM and a TGI [59] of over 65.3 µM. It also gave a TGI [60] of 43.9 µM, a TGI [61] of 30.8 µM and a TGI [36] of over 37.1 µM. It also gave a TGI [62] of 35.3 µM, a TGI [63] of 52.7 µM and a TGI [38] of over 55.7 µM. The TGI [64] was over 50.8 µM, the TGI [39] was over 59.2 µM and the TGI [40] was over 96 µM. The TGI [42] was 15.2 µM, the TGI [65] was 23.5 µM and the TGI [45] was 41.6 µM. It also gave a TGI [66] of over 58.8 µM, a TGI [46] of 29.8 µM and a TGI [47] of 52.9 µM. It also gave a TGI [48] of over 68 µM, a TGI [49] of over 72.8 µM and a TGI [50] of 17.3 µM. The TGI [51] was over 100 µM and the TGI [52] was over 100 µM.
For `CC(C)CC(NC(=O)OCc1ccccc1)C(=O)NC(Cc1ccccc1)C(=O)CCl` (stereo not drawn) (Cbz-Leu-Phe-CH2Cl; configuration not given here), the TGI [1] was 30.5 µM, the TGI [2] was 34.5 µM and the TGI [53] was 9.41 µM. The TGI [4] was 11.3 µM, the TGI [5] was 15.3 µM and the TGI [54] was 11.4 µM. The TGI [55] was 6.56 µM, the TGI [7] was 35.3 µM and the TGI [8] was 3.98 µM. The TGI [9] was 7.54 µM, the TGI [10] was 3.94 µM and the TGI [12] was 4.11 µM. The TGI [56] was 7.37 µM, the TGI [13] was 3.39 µM and the TGI [14] was 3.08 µM. For the same molecule, the TGI [57] was 7.85 µM, the TGI [15] was 4.66 µM and the TGI [16] was 3.24 µM. The TGI [17] was 4.69 µM, the TGI [18] was 5.15 µM and the TGI [19] was 9.88 µM. The TGI [58] was 4.89 µM, the TGI [20] was 3.73 µM and the TGI [21] was 3.45 µM. For the same molecule, the TGI [22] was 2.74 µM, the TGI [23] was 23.7 µM and the TGI [24] was 3.3 µM. It also gave a TGI [25] of 4.33 µM, a TGI [26] of 39.4 µM and a TGI [27] of 26.1 µM. The TGI [28] was 0.776 µM, the TGI [29] was 43.7 µM and the TGI [30] was 8.26 µM. The TGI [31] was 4.16 µM, the TGI [32] was 3.97 µM and the TGI [33] was 4.9 µM. For the same molecule, the TGI [34] was 3.53 µM, the TGI [35] was 5.11 µM and the TGI [59] was 6.16 µM. The TGI [60] was over 100 µM, the TGI [61] was 10.2 µM and the TGI [36] was 12.5 µM. It also gave a TGI [62] of 9.32 µM, a TGI [63] of 25.7 µM and a TGI [38] of 3.34 µM. It also gave a TGI [64] of 3.19 µM, a TGI [39] of 22 µM and a TGI [40] of over 56.8 µM. For the same molecule, the TGI [42] was 7.82 µM, the TGI [65] was 3.5 µM and the TGI [45] was 2.08 µM. It also gave a TGI [66] of 3.3 µM, a TGI [46] of 18.2 µM and a TGI [47] of 8.44 µM. It also gave a TGI [48] of 3.31 µM, a TGI [49] of 16.1 µM and a TGI [50] of 18 µM. The TGI [51] was 71.2 µM and the TGI [52] was 6.77 µM.
`Cc1c(N=Nc2ccc(Cl)cc2)c(-c2ccccc2)n(C2OC(CO)C(O)C(O)C2O)c(=S)c1C#N` (centres undefined) gave a TGI [1] of 34.4 µM, a TGI [53] of 22.4 µM and a TGI [4] of 31.1 µM. For the same molecule, the TGI [5] was 33.7 µM, the TGI [54] was 32.8 µM and the TGI [55] was 22.2 µM. For the same molecule, the TGI [7] was 35.4 µM, the TGI [9] was 33.7 µM and the TGI [10] was 32.9 µM. For the same molecule, the TGI [12] was 29.5 µM, the TGI [56] was 37.5 µM and the TGI [13] was 32.5 µM. It also gave a TGI [14] of 36.7 µM, a TGI [57] of 34.5 µM and a TGI [15] of over 100 µM. It also gave a TGI [16] of 44.4 µM, a TGI [17] of 36 µM and a TGI [18] of over 100 µM. The TGI [19] was 44.8 µM, the TGI [58] was 44.2 µM and the TGI [20] was 28.8 µM. For the same molecule, the TGI [21] was 31.2 µM, the TGI [23] was 54 µM and the TGI [24] was 28.7 µM. For the same molecule, the TGI [25] was 33.2 µM, the TGI [26] was 35.3 µM and the TGI [28] was 87.5 µM. It also gave a TGI [29] of 73.9 µM, a TGI [30] of 32.5 µM and a TGI [31] of 46.4 µM. It also gave a TGI [32] of 28.7 µM, a TGI [33] of 22.5 µM and a TGI [34] of over 100 µM. It also gave a TGI [59] of 29.5 µM, a TGI [60] of 39.4 µM and a TGI [61] of 41 µM. It also gave a TGI [36] of 34 µM, a TGI [62] of 32.7 µM and a TGI [63] of 51.6 µM. It also gave a TGI [38] of 33.9 µM, a TGI [64] of 35.9 µM and a TGI [39] of 25.3 µM. It also gave a TGI [40] of 25.2 µM, a TGI [42] of 26.1 µM and a TGI [65] of 25.8 µM. The TGI [45] was 32.7 µM, the TGI [66] was 39.2 µM and the TGI [46] was 34.2 µM. The TGI [47] was 37.7 µM, the TGI [48] was 28.2 µM and the TGI [49] was 30.6 µM. The TGI [50] was 51.7 µM, the TGI [51] was 21.5 µM and the TGI [52] was 41.3 µM.
